Test results from ChEMBL document CHEMBL1817609, “SAR studies of 4-pyridyl heterocyclic anilines that selectively induce autophagic cell death in von Hippel-Lindau-deficient renal cell carcinoma cells” (Bioorg Med Chem, 2011).
Activity calls are given as the source filed them. The rule behind the calls is not given here.

Legend:
[1] = Growth inhibition of human RCC4/VHL cells after 4 days by XTT assay; assay type: functional, cell-based; conditions: 96 h
[2] = Growth inhibition of human RCC4 cells after 4 days by XTT assay; assay type: functional, cell-based; conditions: RCC4, 96 h
[3] = Selectivity ratio IC50 for human RCC4/VHL cells to IC50 for human RCC4 cells; assay type: functional
[4] = tested on: RCC4; experiment: Induction of autophagy in human RCC4 cells assessed as formation of intracytoplasmic vacuoles at 5 uM after 24 hrs by phase contrast microscopy; assay type: functional, cell-based

Compound	IC50 [1] [µM]	IC50 ([2]; read-out: IC50) [µM]	IC50 ([2]; read-out: pIC50 (converted)) [µM]	Ratio IC50 [3]	Activity [4]
Cc1cccc(Nc2nc(-c3ccncc3)c[nH]2)c1	> 40	> 40	40.7	–	–
Cc1cccc(Nc2nc(-c3ccnc(-c4cnn(C)c4)c3)cs2)c1	8.1	5.2	5.25	1.6	–
Cc1cccc(Nc2nc(-c3ccnc(-c4cccc(F)n4)c3)cs2)c1	> 40	> 40	> 40	–	–
Cc1cccc(Nc2cncc(-c3ccncc3)n2)c1	31.8	8.5	8.51	3.7	–
Cc1cccc(Nc2nc(-c3ccncc3NCCN3CCOCC3)cs2)c1	27.9	19.5	19.5	1.4	–
c1ccc(Nc2nc(-c3ccncc3)cs2)cc1	> 70	7	7.08	>10	–
Cc1cccc(Nc2nc(-c3ccnc(-c4cn(Cc5ccccc5)nn4)c3)cs2)c1	14	2.1	2.14	6.7	–
Cc1cccc(Nc2nc(-c3ccnc(-c4ccccc4)c3)cs2)c1	40	19.1	19.5	2.1	–
Cc1cccc(Nc2nc(-c3ccncc3-c3ccncc3)cs2)c1	34	13.8	13.8	2.5	–
Cc1cccc(Nc2nnc(-c3ccncc3)o2)c1	> 40	> 40	40.7	–	–
Cc1cccc(Nc2nc(-c3ccnc(-c4ccsc4)c3)cs2)c1	> 40	8.7	8.71	>4.6	–
CC(=O)c1ccc(-c2cc(-c3csc(Nc4cccc(C)c4)n3)ccn2)cc1	33.4	38.8	38.9	0.9	–
Cc1cccc(Nc2nc(-c3cnn4ccccc34)cs2)c1	15.3	> 40	40.7	<0.4	–
Cc1cccc(Nc2cc(-c3ccncc3)ncn2)c1	28.1	23.1	23.4	1.2	–
Cc1cccc(Nc2nc(-c3ccnc(-c4cncnc4)c3)cs2)c1	37	26.4	26.9	1.4	–
Cc1cccc(Nc2nc(-c3ccnc(-c4c(C)noc4C)c3)cs2)c1	36.5	3	3.02	12	–
Cc1cccc(Nc2nc(-c3ccncc3C#CCN3CCN(C)CC3)cs2)c1	2.2	2.6	2.63	0.9	–
Cc1cccc(Nc2nc(-c3ccnc(-c4cc[nH]n4)c3)cs2)c1	20	0.48	0.49	–	Active
Cc1cccc(Nc2nc(-c3ccncc3OCCCN(C)C)cs2)c1	20.2	2.7	2.75	7.4	Active
Cc1cccc(Nc2nc(-c3ccncc3-c3ccc(C(N)=O)cc3)cs2)c1	1.6	4.1	4.17	–	–
Cc1cccc(Nc2nc(-c3ccnc(NCCN4CCOCC4)c3)cs2)c1	8	3.7	3.72	2.2	–
Cc1cccc(Nc2nc(-c3ccnc(OCCN4CCOCC4)c3)cs2)c1	21.1	7	7.08	3	–
Cc1cccc(Nc2cccc(-c3ccncc3)c2)c1	38.1	36.9	37.2	1	–
Cc1cccc(Nc2nc(-c3ccncc3N3CCN(C)CC3)cs2)c1	6.6	2.6	2.63	2.5	–
Cc1cccc(Nc2nc(-c3ccncc3-c3ccc(S(C)(=O)=O)cc3)cs2)c1	13.4	1.6	1.62	8.4	–
Cc1cccc(Nc2nc(-c3ccncc3-c3cn(Cc4ccccc4)nn3)cs2)c1	> 40	> 40	40.7	–	–
Cc1cccc(Nc2nc(-c3c(C)nc4ccccn34)cs2)c1	29.8	9.5	9.55	3.1	–

Compound	IC50 [1] [µM]	IC50 ([2]; read-out: IC50) [µM]	IC50 ([2]; read-out: pIC50 (converted)) [µM]	Ratio IC50 [3]	Activity [4]
Cc1cccc(Nc2nc(-c3ccncc3-c3ccc(C(=O)NCCCN(C)C)cc3)cs2)c1	3.9	4	4.07	1	–
Cc1cccc(Nc2nc(-c3ccnc(-c4ccncc4)c3)cs2)c1	38	28.9	29.5	1.3	–
Cc1cccc(Nc2nc(-c3ccnc(-c4cccc5[nH]ccc45)c3)cs2)c1	4.5	3.1	3.16	1.5	–
Cc1cccc(Nc2nc(-c3ccncc3-c3ccc(C(F)(F)F)cc3)cs2)c1	22.6	12.8	12.9	1.8	–
Cc1cccc(Nc2nc(-c3ccncc3)co2)c1	> 40	> 40	40.7	–	–
Cc1cccc(Nc2nc(-c3ccnc(N4CCN(C)CC4)c3)cs2)c1	31.6	11.5	11.7	2.8	–
Cc1cccc(Nc2nc(-c3ccncc3)cs2)c1	40	2.1	2.14	19	Active
Cc1cccc(Nc2nccc(-c3ccncc3)n2)c1	8.6	6.5	6.61	1.3	–
Cc1cccc(Nc2nc(-c3ccncc3-c3ccc(S(=O)(=O)NC(C)(C)C)cc3)cs2)c1	22.5	4.5	4.57	5	–
Cc1cccc(Nc2nc(-c3ccnc4ccccc34)cs2)c1	20	12.3	12.3	1.6	–
Cc1cccc(Nc2nc(-c3ccncc3-c3ccc(C(C)C)cc3)cs2)c1	> 40	> 40	40.7	–	–
Cc1cccc(Nc2nc(-c3ccncc3)n[nH]2)c1	22.2	28.7	28.8	0.8	–
Cc1cccc(Nc2nc(-c3ccncc3OCCN3CCOCC3)cs2)c1	0.88	0.32	0.324	2.8	–
Cc1cccc(Nc2nc(-c3ccncc3C#CCCCO)cs2)c1	0.3	6.3	6.3	–	–
Cc1cccc(Nc2cccc(-c3ccncc3)n2)c1	> 40	7.4	7.41	>5.4	–
Cc1cccc(Nc2nc(-c3ccncc3C#CCN3CCOCC3)cs2)c1	2.3	0.57	0.575	4	Active
Cc1cccc(Nc2nc(-c3ccncc3)ns2)c1	> 40	24.8	25.1	>1.6	–
Cc1cccc(Nc2nc(-c3ccncc3-c3ccccc3)cs2)c1	33.2	11.6	11.7	2.9	–
CCc1cnccc1-c1csc(Nc2cccc(C)c2)n1	–	–	6.31	–	–
Cc1cccc(Nc2nc(-c3cc(Cl)nc(Cl)c3)cs2)c1	–	–	15.1	–	–
Cc1cccc(Nc2nnc(-c3ccncc3)n2C)c1	> 40	> 40	40.7	–	–
Cc1cccc(Nc2nc(-c3ccncc3C#CCCO)cs2)c1	2.8	1.1	1.1	2.5	–
Cc1cccc(Nc2nc(-c3ccnc(OCCCN(C)C)c3)cs2)c1	8.8	6	6.03	1.5	–
Cc1cccc(Nc2nc(-c3ccnc(-c4cnn(Cc5ccccc5)c4)c3)cs2)c1	66.1	2.2	2.24	30	Active
Cc1cccc(Nc2nc(-c3ccncc3)c(CCCN3CCOCC3)s2)c1	–	–	5.89	–	–
Cc1cccc(Nc2nc(-c3ccncc3-c3ccc(C(=O)N4CCN(C)CC4)cc3)cs2)c1	> 40	12.8	12.9	>3.1	–
Cc1cccc(Nc2nc(-c3cc(-c4ccccc4)nc4ccccc34)cs2)c1	> 40	25.4	25.7	>1.6	–
